The target in this assay is T1, GLUT1 (Homo sapiens, UniProt P11166).
T1 sequence (P11166 1-492): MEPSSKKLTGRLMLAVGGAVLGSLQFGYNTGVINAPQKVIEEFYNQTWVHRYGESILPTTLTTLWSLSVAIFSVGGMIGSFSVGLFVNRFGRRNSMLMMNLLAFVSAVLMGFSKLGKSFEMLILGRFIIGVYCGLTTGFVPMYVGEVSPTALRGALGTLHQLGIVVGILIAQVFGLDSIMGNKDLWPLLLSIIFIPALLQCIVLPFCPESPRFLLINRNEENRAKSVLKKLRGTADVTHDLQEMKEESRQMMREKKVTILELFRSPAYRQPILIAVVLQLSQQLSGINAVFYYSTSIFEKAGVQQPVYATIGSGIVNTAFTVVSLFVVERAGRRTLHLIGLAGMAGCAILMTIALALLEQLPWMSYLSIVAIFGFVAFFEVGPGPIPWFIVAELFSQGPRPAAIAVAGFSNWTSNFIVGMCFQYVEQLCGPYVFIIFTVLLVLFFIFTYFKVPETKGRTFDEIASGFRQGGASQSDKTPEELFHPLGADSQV
As to the kind of experiment: Indirect measurement of GLUT1 activity by quantification of intracellular ATP levels (glucose induced ATP increase). It counts as cell-based. Further details: endogenous in cells; host or cells: DLD1 or CHO-K1. The conditions noted are these: read-out: IC50 regarding glucose induced ATP increase (GLUT1 inhibition). The text has this:
Indirect Measurement of GLUT1 and GLUT2 Activity by Quantification of Intracellular ATP Levels
It is well known that a combination of small-molecule inhibitors of mitochondrial electron transport chain and glucose catabolism synergistically suppress ATP production and impair cellular viability (Ulanovskaya et al., 2008, 2011; Liu, et al. 2001). We therefore used DLD1 or CHO-K1 cells in combination with an oxidative phosphorylation inhibitor to identify GLUT1 and GLUT2 inhibitors. Cell lines were maintained in DMEM medium supplemented with 10% FCS and 1% Penicillin-Streptomycin solution and 2% Glutamax. The cells were treated with trypsin and seeded into 384 plates at a density of 4000 cells/well. The cells were then cultured overnight in glucose free media containing 1% FCS to reduce intracellular ATP levels. […] The CellTiter-Glo® Luminescent Cell Viability Assay from Promega was then used to measure ATP Levels.
For the compound `Cc1c(NC(=O)c2cc(C(F)(F)F)nc3c(Cl)cc(Cl)cc23)c(C(F)(F)F)nn1Cc1ccc(F)cc1` [Example 38, 6,8-dichloro-N-[1-(4-fluorobenzyl)-5-methyl-3-(trifluoromethyl)-1H-pyrazol-4-yl]-2-(trifluoromethyl)quinoline-4-carboxamide], the IC50 turned out to be 29.5 nM.

In the case of `Cc1nn(Cc2cc(C(C)C)no2)c(C)c1NC(=O)c1cc(C(N)=O)nc2cc(F)c(Cl)cc12` [Example 416, 6-chloro-N^4-(3,5-dimethyl-1-{[3-(propan-2-yl)-1,2-oxazol-5-yl]methyl}-1H-pyrazol-4-yl)-7-fluoroquinoline-2,4-dicarboxamide], the IC50 stood at 2.7 nM.

With `Cc1nn(Cc2ccc(C(=O)NC(CO)(CO)CO)cc2)c(C)c1NC(=O)c1cc(C(F)(F)F)nc2ccc(Br)cc12` [Example 1136], the IC50 was 98.2 nM.

`Cc1nn(Cc2cccc(F)c2)c(C)c1NC(=O)c1cc(C(F)(F)F)nc2c(Cl)cc(Cl)cc12` [Example 104, 6,8-dichloro-N-[1-(3-fluorobenzyl)-3,5-dimethyl-1H-pyrazol-4-yl]-2-(trifluoromethyl)quinoline-4-carboxamide]: the IC50 worked out at 519 nM.

`COc1cc(C(=O)Nc2c(C)nn(Cc3ccc(S(C)(=O)=O)cc3)c2C)c2ccccc2n1` [Example 1052]: the IC50 is 13.1 nM.

`Cc1nn(Cc2cccnc2)c(C)c1NC(=O)c1cc(C(F)(F)F)nc2cc(F)c(F)cc12` [Example 196, N-[3,5-dimethyl-1-(pyridin-3-ylmethyl)-1H-pyrazol-4-yl]-6,7-difluoro-2-(trifluoromethyl)quinoline-4-carboxamide]: the IC50 stood at 286 nM.

Regarding `Cc1c(NC(=O)c2cc(C(N)=O)nc3ccc(S(C)(=O)=O)cc23)c(C(F)(F)F)nn1Cc1ccc(C#N)cc1` [Example 1389], the IC50 turned out to be 1930 nM.

For the compound `Cc1nn(CC2COc3ccccc3O2)c(C)c1NC(=O)c1cc(C(F)(F)F)nc2ccc(Br)cc12` (stereo not shown) [Example 1208], the IC50 is 481 nM.

Consider `Cc1nn(Cc2c(F)cc(F)cc2F)c(C)c1NC(=O)c1cc(C(F)(F)F)nc2ccc(Br)cc12` [Example 49, 6-bromo-N-[3,5-dimethyl-1-(2,4,6-trifluorobenzyl)-1H-pyrazol-4-yl]-2-(trifluoromethyl)quinoline-4-carboxamide], for which the IC50 stood at 50 nM.

Turning to `Cc1nn(Cc2ccc(C(=O)NC[C@H](C)O)cc2)c(C)c1NC(=O)c1cc(C(F)(F)F)nc2ccc(Br)cc12` [Example 1046], the concentration for half-maximal inhibition (IC50) was 9.6 nM.

Take `CC(C)c1nn(Cc2ccc(F)cc2)c(C(C)C)c1NC(=O)c1cc(C(F)(F)F)nc2cc(F)c(F)cc12` [Example 1357]: the IC50 was above 13000 nM.

For the compound `Cc1nn(Cc2ccc(C(=O)N(CCO)CCO)cc2)c(C)c1NC(=O)c1cc(C(F)(F)F)nc2ccc(Br)cc12` [Example 1145], the IC50 was 116 nM.

Turning to `COc1cc(C(=O)Nc2c(C)nn(Cc3ccc(C(F)(F)F)cc3)c2C)c2ccccc2n1` [Example 1269], the IC50 came to 2890 nM.

On to `Cc1nn(Cc2cccnc2)c(C)c1NC(=O)c1cc(C(F)(F)F)nc2ccc(Br)cc12` [Example 171, 6-bromo-N-[3,5-dimethyl-1-(pyridin-3-ylmethyl)-1H-pyrazol-4-yl]-2-(trifluoromethyl)quinoline-4-carboxamide], for which the IC50 stood at 57.1 nM.

For `Cc1nn(Cc2ccc(C#N)cc2)c(C)c1NC(=O)c1cc(C(N)=O)nc2cc(F)c(Cl)cc12` [Example 212, 6-chloro-N^4-[1-(4-cyanobenzyl)-3,5-dimethyl-1H-pyrazol-4-yl]-7-fluoroquinoline-2,4-dicarboxamide], the IC50 worked out at 0.6 nM.

Consider `Cc1nn(Cc2ccc(F)cc2)c(C)c1N(Cc1ccccc1)C(=O)c1cc(C(F)(F)F)nc2ccc(Br)cc12` [Example 200], for which the IC50 was 539 nM.

As to `Cc1nn(Cc2ccc(C(=O)NCC3CCCCC3)cc2)c(C)c1NC(=O)c1cc(C(F)(F)F)nc2ccc(Br)cc12` [Example 1251], the IC50 came to 1870 nM.

With `C#CCNC(=O)c1ccc(Cn2nc(C)c(NC(=O)c3cc(C(F)(F)F)nc4ccc(Br)cc34)c2C)cc1` [Example 1141], the IC50 came out at 108 nM.

In the case of `COCc1ccc(Cn2nc(C(F)(F)F)c(NC(=O)c3cc(C(N)=O)nc4cc(F)ccc34)c2C)cc1` [Example 401, 7-fluoro-N^4-{1-[4-(methoxymethyl)benzyl]-5-methyl-3-(trifluoromethyl)-1H-pyrazol-4-yl}quinoline-2,4-dicarboxamide], the IC50 is 10 nM.

Take `Cc1nn(Cc2ccc(C(=O)NC3CC3)cc2)c(C)c1NC(=O)c1cc(C(F)(F)F)nc2ccc(Br)cc12` [Example 1024]: the IC50 was 2.7 nM.

Consider `Cc1c(NC(=O)c2cc(C(N)=O)nc3cc(F)ccc23)c(C(F)(F)F)nn1Cc1ccc(F)cc1F` [Example 1435], for which the IC50 was determined as 2.8 nM.

Take `CC(C)c1nn(Cc2ccc(F)cc2)c(C(C)C)c1NC(=O)c1cc(C(F)(F)F)nc2ccc(Br)cc12` [Example 1355]: the IC50 is above 13000 nM.

Turning to `Cc1c(NC(=O)c2cc(C(N)=O)nc3cc(F)c(Cl)cc23)c(C(F)(F)F)nn1Cc1ccc(F)c(F)c1` [Example 1444], the IC50 came to 11.6 nM.

With `Cc1nn(Cc2ccc(C#N)cc2F)c(C)c1NC(=O)c1cc(C(N)=O)nc2ccccc12` [Example 297, N^4-[1-(4-cyano-2-fluorobenzyl)-3,5-dimethyl-1H-pyrazol-4-yl]quinoline-2,4-dicarboxamide], the IC50 worked out at 0.8 nM.

For the compound `Cc1nn(Cc2ccc(F)cc2)c(C)c1NC(=O)c1cc(C2CC2)nc2cccc(F)c12` [Example 46, 2-cyclopropyl-5-fluoro-N-[1-(4-fluorobenzyl)-3,5-dimethyl-1H-pyrazol-4-yl]quinoline-4-carboxamide], the IC50 amounted to 40 nM.

Turning to `Cc1nn(C(C)c2ccc(C#N)cc2)c(C)c1NC(=O)c1cc(C(N)=O)nc2ccccc12` (racemic) [Example 329, (±)-N^4-{1-[1-(4-cyanophenyl)ethyl]-3,5-dimethyl-1H-pyrazol-4-yl}quinoline-2,4-dicarboxamide], the IC50 came to 1.1 nM.

For `CNC(=O)c1ccc(Cn2nc(C(F)(F)F)c(NC(=O)c3cc(C(N)=O)nc4cc(F)ccc34)c2C)cc1` [Example 370, 7-fluoro-N^4-{5-methyl-1-[4-(methylcarbamoyl)benzyl]-3-(trifluoromethyl)-1H-pyrazol-4-yl}quinoline-2,4-dicarboxamide], the IC50 is 12.8 nM.

Take `Cc1nn(C(C)c2ccccc2)c(C)c1NC(=O)c1cc(C(N)=O)nc2cc(F)c(Cl)cc12` (racemic) [Example 1363]: the IC50 is 1.8 nM.

Regarding `COc1cccc(Cn2nc(C)c(NC(=O)c3cc(C(N)=O)nc4ccccc34)c2C)c1` [Example 1452], the IC50 is 8.8 nM.

For the compound `Cc1nn(C(C)CCc2ccc(F)cc2)c(C)c1NC(=O)c1cc(C(N)=O)nc2cc(F)c(Cl)cc12` (racemic) [Example 1380], the 50% inhibitory concentration (IC50) was determined as 3.7 nM.

As to `Cc1c(NC(=O)c2cc(C(N)=O)nc3ccccc23)c(C(F)(F)F)nn1Cc1nc(C(=O)O)co1` [Example 1684], the 50% inhibitory concentration (IC50) is 721 nM.

With `Cc1nn(Cc2ccc(C(=O)N(C)CCN(C)C)cc2)c(C)c1NC(=O)c1cc(C(F)(F)F)nc2ccc(Br)cc12` [Example 1224], the IC50 was 912 nM.

Regarding `CCc1nn(Cc2ccc(F)cc2)c(CC)c1NC(=O)c1cc(C(N)=O)nc2cc(F)c(Cl)cc12` [Example 1386], the IC50 is 13.6 nM.

`COC(=O)c1cc(C(=O)Nc2c(C)nn(Cc3ccc(C#N)cc3)c2C)c2ccc(OC)cc2n1` [Example 1390]: the IC50 came to 229 nM.

The term IC50 denotes the point on the concentration scale where inhibition reaches its midpoint.
